{
  "source": "paper PMC8217011",
  "about": "“Natural brominated phenoxyphenols kill persistent and biofilm-incorporated cells of MRSA and other pathogenic bacteria” (Applied Microbiology and Biotechnology, 2020)",
  "key": {"[1]": {"tested_on": "Acinetobacter baumannii ATCC 747", "assay": "MIC determination (microbroth dilution)", "assay_type": "cell-based", "details": "colistin alone", "description": "(§1) Cultures were, if not stated differently, incubated at 37 °C with aeration and shaking (150 rpm) in Mueller-Hinton broth (MHB). Bacteria were freshly incubated at the next morning from an overnight pre-culture for actively growing bacteria to an OD600 nm of approx. 0.6. To ensure persistent growth form, the bacteria were grown overnight until a density at OD600 nm > 5.0 was obtained. For biofilm growth, some colonies from a Mueller-Hinton agar (MHA) plate were picked and resuspended in MHB. Cell density has been adjusted to OD600 nm = 0.8, and cells were sown into a flat-bottom 96-well plate to be incubated statically at 37 °C with aeration. Studies were mainly performed with S. aureus Mu50.\n(§2) The minimal inhibitory concentration (MIC) has been determined according to the CSLI guidelines (CLSI [2012]). Briefly, in a sterile polystyrene U-bottom 96-well plate, a 2-fold serial dilution ranging from 100 to 0.78 μM of testing compounds has been prepared in 50 μL MHB. A freshly inoculated S. aureus culture was grown until OD600 nm of approx. 0.6 and diluted to 10^6 CFU/mL in MHB. Finally, 50 μL of the latter cell suspension was added to each well and then incubated statically for 18–24 h at 37 °C. MIC was determined using BacTiterGlo ATP assay (Promega, Madison, WI, USA) and Tecan Infinite F200 Pro (Tecan, Männedorf, Switzerland). Moxifloxacin and DMSO were used as positive and negative control, respectively. Sublethal concentrations of colistin (0.1 μM) were used in some experiments to increase the permeability of the gram-negative cell envelope for compound testing. For E. cloacae, a broth microdilution assay was performed using a serial 2-fold dilution in 96-well flat-bottomed plates (Falcon, BD Bioscience, Heidelberg) of both PPs in broth LB medium (Roth, Karlsruhe) at a concentration range of 50–0.024 μM."}, "[2]": {"tested_on": "Escherichia coli ATCC 25922", "assay": "MIC determination (microbroth dilution)", "assay_type": "cell-based", "details": "colistin alone", "description": "as §1, §2"}, "gram-negative bacteria": {"tested_on": "gram-negative bacteria", "assay": "MIC determination, summary over gram-negative strains", "assay_type": "cell-based", "details": "colistin concentration of 0.1 μM (0.12 μg/mL)", "description": "as §2"}, "[3]": {"tested_on": "stationary phase-induced persistent cells of MRSA strain Mu50", "assay": "Persister killing kinetics (CFU plating)", "assay_type": "cell-based, Staphylococcus aureus", "details": "start 10^8 CFU/mL", "description": "For persister killing kinetics, cells were grown overnight until a density of OD600 nm > 5.0 was reached and then washed three times with PBS. Next, cell density was adjusted to 10^8 CFU/mL in 5 mL PBS. […] Analysis was performed as described above."}, "[4]": {"tested_on": "actively replicating MRSA strain Mu50", "assay": "Killing kinetics, actively replicating cells (CFU plating)", "assay_type": "cell-based, Staphylococcus aureus", "details": "MHB, start 10^6 CFU/mL; PPs at 4× MIC, moxifloxacin 20 μM; detection limit 10^2 CFU/mL", "description": "S. aureus cells were freshly incubated in MHB until an OD600 nm of approx. 0.6 was reached. Next, the cells were diluted to 10^6 CFU/mL in 5 mL MHB. […] At certain time points (0, 0.5, 1, 3, 6, 8, 24 h), 100 μL was removed from the culture, diluted and plated onto MHA plates. After 24-h incubation, colonies were counted and viability (expressed as colony-forming units per mL (CFU/mL)) was calculated considering the dilution factor."}, "pre-formed MRSA biofilms": {"tested_on": "pre-formed MRSA biofilms", "assay": "Biofilm viability by CFU plating", "assay_type": "cell-based, Staphylococcus aureus", "details": "24 h of treatment, 4× minimal biofilm inhibitory concentration, moxifloxacin 20 μM", "description": "Additionally, biofilm viability was quantified by CFU plating. Biofilms were pregrown as described above and treated for 24 h with 4× minimal biofilm inhibitory concentrations as calculated from the Resazurin reduction assay. Biofilms were dispersed by pipetting followed by sonification in a water bath. Dilutions were plated on Mueller-Hinton agar plates and incubated overnight at 37 °C."}},
  "note": "“And” between values parts separate entries of the source, which are not always exact repeats. Equal entries are not always repeated.",
  "data": [
    {"molecule": "colistin [reference compound]", "values": [
      {"measurement": "MIC", "setting": "[1]", "value": "0.78 μM and 0.90 μg/mL"},
      {"measurement": "MIC", "setting": "[2]", "value": "0.78 μM and 0.90 μg/mL"},
      {"measurement": "growth of gram-negative bacteria", "setting": "gram-negative bacteria", "value": "not inhibited"}
    ]},
    {"molecule": "CCCCCCCCCCCCCCCCn1cc[n+](Cc2ccccc2)c1C.[I-]", "note": "[NH125, reference compound]", "values": [
      {"measurement": "time until viability reduced to the detection limit", "setting": "[3]; PPs at 4× MIC, NH125 10 μM, detection limit 10^2 CFU/mL", "value": "~3", "unit": "h"}
    ]},
    {"molecule": "COc1c(N2C[C@@H]3CCCN[C@@H]3C2)c(F)cc2c(=O)c(C(=O)O)cn(C3CC3)c12", "note": "[moxifloxacin, reference compound]", "values": [
      {"measurement": "time until viability reached the detection limit", "setting": "[4]", "value": 3, "unit": "h"},
      {"measurement": "decrease of viability of persistent cells after 24 h", "setting": "[3]; 3-bromo-PP at 4× MIC, moxifloxacin control, 24 h", "value": "did not show any effect"},
      {"measurement": "reduction in viable cell counts in biofilms", "setting": "pre-formed MRSA biofilms", "value": "virtually no effect"}
    ]}
  ]
}
